Test results taken from US20030166922A1, “Novel cephalosporin compounds and process for preparing the same” (priority 2000, published 2003).
In brackets after ≈: the same amount, converted by molar mass.

Assays:
Test in all cases: Minimum Inhibitory Concentration (MIC), agar dilution, standard strains
S. epidermidis R005 = assay type: cell-based; settings: Table 1, Mueller-Hinton agar, 37° C., 20 hours; for MIC: Staphylococcus epidermidis, R005, read-out: Minimum Inhibitory Concentration (MIC), S. epidermidis R005
Method: (§1) Minimum Inhibitory Concentration (MIC)
(§2) The effectiveness of the compound according to the present invention was determined by obtaining Minimum Inhibitory Concentration (MIC) of the compounds prepared by the above Examples (I-1 to I-33) and vancomycin, which is the known compound having a potent activity against gram-positive strains, as the control drug against the standard strains. Specifically, Minimum Inhibitory Concentration was obtained by diluting the test material with a double dilution method, dispersing them in Mueller-Hinton agar medium, inoculating each of the test strain having 10^7 cfu (colny forming unit) in an amount of 2:1 to the medium and then incubating them at 37° C. for 20 hours.

E. faecalis L239 = assay type: cell-based; settings: Table 1, Mueller-Hinton agar, 37° C., 20 hours; for MIC: Enterococcus faecalis, L239, read-out: Minimum Inhibitory Concentration (MIC), E. faecalis L239
Method: as §1, §2

[1] = system: Staphylococcus aureus giorgio; assay type: cell-based; settings: Table 1, Mueller-Hinton agar, 37° C., 20 hours; for MIC: Staphylococcus aureus, read-out: Minimum Inhibitory Concentration (MIC), Staphylococcus aureus giorgio
Method: as §1, §2

S. aureus 77 = assay type: cell-based, Staphylococcus aureus; settings: Table 1, Mueller-Hinton agar, 37° C., 20 hours; for MIC: Staphylococcus aureus, 77, read-out: Minimum Inhibitory Concentration (MIC), S. aureus 77
Method: as §1, §2

S. aureus 241 = assay type: cell-based, Staphylococcus aureus; settings: Table 1, Mueller-Hinton agar, 37° C., 20 hours; for MIC: Staphylococcus aureus, 241, read-out: Minimum Inhibitory Concentration (MIC), S. aureus 241
Method: as §1, §2

Row | SMILES | Minimum Inhibitory Concentration (MIC), S. epidermidis R005 (S. epidermidis R005) | Minimum Inhibitory Concentration (MIC), E. faecalis L239 (E. faecalis L239) | Minimum Inhibitory Concentration (MIC), Staphylococcus aureus giorgio [1] | Minimum Inhibitory Concentration (MIC), S. aureus 77 (S. aureus 77) | Minimum Inhibitory Concentration (MIC), S. aureus 241 (S. aureus 241) | MIC (S. epidermidis R005) [µg/mL] | MIC (E. faecalis L239) [µg/mL] | MIC [1] [µg/mL] | MIC (S. aureus 77) [µg/mL] | MIC (S. aureus 241) [µg/mL]
1 | CN(CC(=O)N[C@@H]1C(=O)N2C(C(=O)O)=C(SCSc3cc(N)nc(N)n3)CS[C@H]12)c1cc(Cl)ccc1Cl [Example I-6, (6R,7R)-3-({[(2,6-diamino-4-pyrimidinyl)sulfanyl]methyl}sulfanyl)-7-({2-[2,5-dichloro(methyl)anilino]acetyl}amino)-8-oxo-5-thia-1-azabicyclo[4.2.0]oct-2-ene-2-carboxylic acid] | 0.5 :g/ml | 4 :g/ml | 0.031 :g/ml | 0.5 :g/ml | 8 :g/ml | – | – | – | – | –
2 | Nc1nc(SCSC2=C(C(=O)O)N3C(=O)[C@@H](NC(=O)CSc4cc(Cl)ccc4Cl)[C@H]3SC2)nc2cn[nH]c12 [Example I-13, (6R,7R)-3-({[(7-amino-1H-pyrazolo [4,3-d]pyrimidin-5-yl)sulfanyl]methy-1}sulfanyl)-7-({2-[(2,5-dichlorophenyl)sulfanyl]acetyl}amino)-8-oxo-5-thia-1-azabicyc-lo[4.2.0]oct-2-ene-2-carboxylic acid] | 0.13 :g/ml | 0.25 :g/ml | <0.008 :g/ml | 0.13 :g/ml | 2 :g/ml | – | – | – | – | –
3 | Nc1cc(N)[n+](N)c(SCSC2=C(C(=O)O)N3C(=O)[C@@H](NC(=O)CSc4cc(Cl)ccc4Cl)[C@H]3SC2)n1 [Example I-10, (6R,7R)-1,4,6-triamino-2-[({[2-carboxy-7-({2-[(2,5-dichlorophenyl)sulfany-1]acetyl}amino)-8-oxo-5-thia-1-azabicyclo[4.2.0]oct-2-en-3-yl]sulfanyl}methyl)sulfanyl]p-yrimidin-1-iu m] | 0.13 :g/ml | 0.5 :g/ml | <0.008 :g/ml | 0.25 :g/ml | 4 :g/ml | – | – | – | – | –
4 | Nc1nc(O)cc(SCSC2=C(C(=O)O)N3C(=O)[C@@H](NC(=O)CSc4cc(Cl)ccc4Cl)[C@H]3SC2)n1 [Example I-2, (6R,7R)-3-({[(2-amino-6-hydroxy-4-pyrimidinyl)sulfanyl]methyl}sulfanyl)-7-({2-[(2,5-dic hlorophenyl)sulfanyl]acetyl}amino)-8-oxo-5-thia-1-azabicyclo[4.2.0]oct-2-ene-2-carboxylic acid] | – | – | – | – | – | 0.063 (≈ 0.104 µM) | 0.25 (≈ 0.412 µM) | < 0.008 | 0.13 (≈ 0.214 µM) | 1 (≈ 1.65 µM)
5 | Nc1cc(SCSC2=C(C(=O)O)N3C(=O)[C@@H](NC(=O)CSc4cc(Cl)ccc4Cl)[C@H]3SC2)nc(O)n1 [Example I-4, (6R,7R)-3-({[(6-amino-2-hydroxy-4-pyrimidinyl)sulfanyl]methyl}sulfanyl)-7-({2-[(2,5-dic hlorophenyl)sulfanyl]acetyl}amino)-8-oxo-5-thia-1-azabicyclo[4.2.0]oct-2-ene-2-carboxylic acid] | – | – | – | – | – | 0.25 (≈ 0.412 µM) | 0.5 (≈ 0.824 µM) | < 0.008 | 0.25 (≈ 0.412 µM) | 4 (≈ 6.59 µM)
6 | Nc1cc(SCSC2=C(C(=O)O)N3C(=O)[C@@H](NC(=O)CSc4cc(Cl)ccc4Cl)[C@H]3SC2)nc(N)n1 [Example I-1, (6R,7R)-3-({[(2,6-diamino-4-pyrimidinyl)sulfanyl]methyl}sulfanyl)-7-({2-[(2,5-dichlorophenyl)sulfanyl]acetyl}amino)-8-oxo-5-thia-1-azabicyclo[4.2.0]oct-2-ene-2-carboxylic acid] | – | – | – | – | – | 0.063 (≈ 0.104 µM) | 0.25 (≈ 0.413 µM) | < 0.008 | 0.063 (≈ 0.104 µM) | 1 (≈ 1.65 µM)
7 | Nc1cc(SCSC2=C(C(=O)O)N3C(=O)[C@@H](NC(=O)CNc4cc(Cl)ccc4Cl)[C@H]3SC2)nc(N)n1 [Example I-5] | 0.5 :g/ml | 1 :g/ml | 0.016 :g/ml | 0.5 :g/ml | 8 :g/ml | – | – | – | – | –
8 | Nc1nc(SCSC2=C(C(=O)O)N3C(=O)[C@@H](NC(=O)CSc4cc(Cl)ccc4Cl)[C@H]3SC2)nc2c1CCC2 [Example I-9, (6R,7R)-3-({[(4-amino-6,7-dihydro-5H-cyclopenta[d]pyrimidin-2-yl)sulfany-1]methyl}sulfanyl)-7-({2-[(2,5-dichlorophenyl)sulfanyl]acetyl}amino)-8-oxo-5-thia-1-aza-bicyclo[4.2.0]oct-2-ene-2-carboxylic acid] | 0.25 :g/ml | 0.25 :g/ml | <0.008 :g/ml | 0.25 :g/ml | 4 :g/ml | – | – | – | – | –
9 | CCSc1nc(C)cc(SCSC2=C(C(=O)O)N3C(=O)[C@@H](NC(=O)CSc4cc(Cl)ccc4Cl)[C@H]3SC2)n1 [Example I-12, (6R,7R)-7-({2-[(2,5-dichlorophenyl)sulfanyl]acetyl}amino)-3-[({[2-(ethylsul-fanyl)-6-methyl-4-pyrimidinyl]sulfanyl}methyl)sulfanyl]-8-oxo-5-thia-1-azabicyclo[4.2. 0]oct-2-ene-2-carboxylic acid] | 0.5 :g/ml | 0.25 :g/ml | 0.031 :g/ml | 0.5 :g/ml | 4 :g/ml | – | – | – | – | –

Now from value to compound:

Row | Minimum Inhibitory Concentration (MIC), S. epidermidis R005 (S. epidermidis R005) | Minimum Inhibitory Concentration (MIC), E. faecalis L239 (E. faecalis L239) | Minimum Inhibitory Concentration (MIC), Staphylococcus aureus giorgio [1] | Minimum Inhibitory Concentration (MIC), S. aureus 77 (S. aureus 77) | Minimum Inhibitory Concentration (MIC), S. aureus 241 (S. aureus 241) | MIC (S. epidermidis R005) [µg/mL] | MIC (E. faecalis L239) [µg/mL] | MIC [1] [µg/mL] | MIC (S. aureus 77) [µg/mL] | MIC (S. aureus 241) [µg/mL] | SMILES
10 | – | – | – | – | – | 0.063 (≈ 0.104 µM) | 0.5 (≈ 0.826 µM) | < 0.008 | 0.25 (≈ 0.413 µM) | 2 (≈ 3.3 µM) | Nc1cc(N)nc(SCSC2=C(C(=O)O)N3C(=O)[C@@H](NC(=O)CSc4cc(Cl)ccc4Cl)[C@H]3SC2)n1 [Example I-16, (6R,7R)-3-({[(4,6-diamino-2-pyrimidinyl)sulfanyl]methyl}sulfanyl)-7-({2-[(2,5-dichlorophenyl)sulfanyl]acetyl}amino)-8-oxo-5-thia-1-azabicyclo[4.2.0]oct-2-ene-2-carboxylic acid]
11 | – | – | – | – | – | 0.25 (≈ 0.413 µM) | 0.5 (≈ 0.826 µM) | 0.016 (≈ 0.0264 µM) | 0.13 (≈ 0.215 µM) | 2 (≈ 3.3 µM) | Nc1ncnc(SCSC2=C(C(=O)O)N3C(=O)[C@@H](NC(=O)CSc4cc(Cl)ccc4Cl)[C@H]3SC2)c1N [Example I-17, (6R,7R)-3-({[(5,6-diamino-4-pyrimidinyl)sulfanyl]methyl}sulfanyl)-7-({2-[(2,5-dichlorophenyl)sulfanyl]acetyl}amino)-8-oxo-5-thia-1-azabicyclo[4.2.0]oct-2-ene-2-carboxylic acid]
12 | 8 :g/ml | 16 :g/ml | 0.5 :g/ml | 8 :g/ml | >32 :g/ml | – | – | – | – | – | Cc1c(N)nc([S+]([O-])CSC2=C(C(=O)O)N3C(=O)[C@@H](NC(=O)CSc4cc(Cl)ccc4Cl)[C@H]3SC2)[n+](N)c1N (stereo partly drawn) [Example I-23, (6R,7R)-1,4,6-triamino-2-[({[(2-carboxy-7-({2-[(2,5-dichlorophenyl)sulfan-yl]acetyl}amino)-8-oxo-5-thia-1-azabicyclo[4.2.0]oct-2-en-3-yl)]sulfanyl}methyl)sulfin-yl]-5-methylpyri midin-1-ium]
13 | – | – | – | – | – | 0.25 (≈ 0.393 µM) | 0.25 (≈ 0.393 µM) | < 0.008 | 0.5 (≈ 0.787 µM) | 4 (≈ 6.29 µM) | CSc1nc(C)cc(SCSC2=C(C(=O)O)N3C(=O)[C@@H](NC(=O)CSc4cc(Cl)ccc4Cl)[C@H]3SC2)n1 [Example I-22, (6R,7R)-7-({2-[(2,5-dichlorophenyl)sulfanyl]acetyl}amino)-3-[({[6-methyl-2-(methylsulfanyl)-4-pyrimidinyl]sulfanyl}methyl)sulfanyl]-8-oxo-5-thia-1-azabicyclo[4.2. 0]oct-2-ene-2-carboxylic acid]
14 | 0.25 :g/ml | 0.5 :g/ml | 0.016 :g/ml | 0.25 :g/ml | 4 :g/ml | – | – | – | – | – | Cc1c(N)nc(SCSC2=C(C(=O)O)N3C(=O)[C@@H](NC(=O)CSc4cc(Cl)ccc4Cl)[C@H]3SC2)nc1N [Example I-18, (6R,7R)-3-({[(4,6-diamino-5-methyl-2-pyrimidinyl)sulfanyl]methyl}sulfan-yl)-7-({2-[(2,5-dichlorophenyl)sulfanyl]acetyl}amino)-8-oxo-5-thia-1-azabicyclo[4.2.0]oc-t-2-ene-2-carb oxylic acid]
